From patent publication US11173160B2 (UNIVERSITY OF PITTSBURGH—OF THE COMMONWEALTH SYSTEM OF …, priority 2019, dated 2021)
“Also recorded” adds a separate entry of the source.

Key:
MKK6 = MKK6 (Homo sapiens, UniProt P52564); conditions: cited from earlier work
FAK = FAK (Homo sapiens, UniProt Q05397); conditions: cited from earlier work
IGF-1R = IGF-1R (Homo sapiens, UniProt P08069); conditions: cited from earlier work
DIPG4 = test: IC50 of two forms of TG02 in DIPG cell lines in vitro; assay type: cell-based, human; conditions: DIPG4 cell line; listed as TG02 obtained from Adastra Pharmaceuticals
Procedure: (§1) Direct cell counts were performed using the Countess II FL Automated Cell Counter (ThermoFisher Scientific). Alamar blue viability (ThermoFisher Scientific) and the 5-bromo-2′-deoxyuridine (BrdU) incorporated cell proliferation assay (Cell Signaling Technology Cat #6813) were performed using the manufacturer's standard protocol. EC50 curve analysis was performed using raw fluorescent Alamar blue values that were inputted into PRISM 7.0. Drug concentrations were log 10 transformed and values normalized to percent viability with respect to vehicle treated cells. EC50 values were interpolated from a log inhibitor vs. normalized response with variable slope using a least square fit model.

DIPG13p = test: as above; assay type: cell-based, human; conditions: DIPG13p cell line; listed as TG02 obtained from Adastra Pharmaceuticals
Procedure: as §1

DIPG007 = test: as above; assay type: cell-based, human; conditions: DIPG007 cell line; listed as TG02 obtained from Adastra Pharmaceuticals
Procedure: as §1

SF8628 = test: as above; assay type: cell-based, human; conditions: SF8628 cell line; listed as TG02 obtained from Adastra Pharmaceuticals
Procedure: as §1

[1] = tested on: ERK5 phosphorylation in DIPG-007 and DIPG-IV cells; test: Western blot of ERK5 phosphorylation in DIPG cells; assay type: cell-based, human; conditions: 50 nM
Procedure: Cell pellets were lysed in PLC lysis buffer containing protease and phosphatase inhibitors (Roche Inc.). Protein lysates were quantified using the bicinchoninic acid (BCA) assay (Pierce Chemical Co., Rockford, Ill.). 30 μg of total protein lysate was loaded in 10% SDS-PAGE gels and electrophoresed. Proteins were transferred to PVDF membranes using a semi-dry transfer apparatus (Bio-Rad). Membranes were blocked for one hour and probed for various proteins overnight in 5% non-fat milk or 5% BSA in Tris Buffered Saline Solution, 0.5% Tween-20 (TBST) or Phosphate Buffered Saline Solution with 0.5% Tween-20 (PBST). Membranes were washed for 5 mins in TBST (3×) and incubated with horseradish peroxidase-conjugated antibodies specific for the primary antibody (BioRad Laboratories, Inc., CA, USA). Binding was detected using Chemiluminescence Reagent Plus (PerkinElmer Inc., MA, USA).

PKBα = PKBα (Homo sapiens, UniProt P31749); conditions: cited from earlier work
PKA = PKA (Homo sapiens, UniProt P17612); conditions: cited from earlier work
PLK1 = PLK1 (Homo sapiens, UniProt P53350); conditions: cited from earlier work
ZAP-70 = ZAP-70 (Homo sapiens, UniProt P43403); conditions: cited from earlier work
MAPKAP-K2 = MAPKAP-K2 (Homo sapiens, UniProt P49137); conditions: cited from earlier work
TYRO3 = TYRO3 (Homo sapiens, UniProt Q06418); conditions: Source Invitrogen; 10-point titration in duplicates, done once; cited from earlier work
Pim-3 = Pim-3 (Homo sapiens, UniProt Q86V86); conditions: cited from earlier work
[2] = tested on: DIPG-13p and SF8628 cells; test: cell growth and Annexin-PI apoptosis assay; assay type: cell-based, human
Procedure: FIG. 12E provides Annexin-PI quantification of DIPG cells treated in biological triplicates with ERK5 inhibitors at 48 h from (FIGS. 12C-12D).
Apoptosis was quantified using the Pacific Blue Annexin V Apoptosis Detection Kit with propidium iodide (BioLegend, San Diego, Calif. Cat #640926). Analysis was performed at the Flow Cytometry Core, Rangos Research Center, UPMC Children's Hospital of Pittsburgh.

[3] = tested on: DIPG-007, DIPG-IV, and SF8628 cells; test: direct Trypan-Blue automated cell count; assay type: cell-based, human; conditions: 50 nM of TG02, 9 days of treatment, vs vehicle
Procedure: FIGS. 5A-5K provide that pharmacological inhibition of ERK5 triggered cell death and apoptosis in DIPG cells. […] (5C-5E).
as §1

GSK3α = GSK3α (Homo sapiens, UniProt P49840); conditions: cited from earlier work
tumor cells (DIPG) = test: cell viability with TG02 and radiation (cell count/trypan blue); assay type: cell-based; conditions: day 5
Procedure: Cells were plated on day 1 (1×10^6). […] On day 5, cell viability were measured by cell count/trypan blue assay on thermo cell countess machines. For fractionated rad, additional 1.8 Gy doses were given on days 3 and 4. […] Therefore, the combination of TG02 and radiation can provide significant, synergistic benefits for treating DIPG as compared to when TG02 and radiation are administered alone.

IRAK4 = IRAK4 (Homo sapiens, UniProt Q9NWZ3); conditions: cited from earlier work
[4] = cited from earlier work
MEK1 = MEK1 (Homo sapiens, UniProt Q02750); conditions: cited from earlier work
[5] = tested on: DIPG-13p and DIPG-IV cells; test: cell viability with TG02 and/or RT; assay type: cell-based, human
TAK1 = TAK1 (Homo sapiens, UniProt O43318); conditions: cited from earlier work
Src = Src (Homo sapiens, UniProt P12931); conditions: cited from earlier work
Nek2 = Nek2 (Homo sapiens, UniProt P51955); conditions: cited from earlier work

Chain of Src (P12931 whole entry, species assumed): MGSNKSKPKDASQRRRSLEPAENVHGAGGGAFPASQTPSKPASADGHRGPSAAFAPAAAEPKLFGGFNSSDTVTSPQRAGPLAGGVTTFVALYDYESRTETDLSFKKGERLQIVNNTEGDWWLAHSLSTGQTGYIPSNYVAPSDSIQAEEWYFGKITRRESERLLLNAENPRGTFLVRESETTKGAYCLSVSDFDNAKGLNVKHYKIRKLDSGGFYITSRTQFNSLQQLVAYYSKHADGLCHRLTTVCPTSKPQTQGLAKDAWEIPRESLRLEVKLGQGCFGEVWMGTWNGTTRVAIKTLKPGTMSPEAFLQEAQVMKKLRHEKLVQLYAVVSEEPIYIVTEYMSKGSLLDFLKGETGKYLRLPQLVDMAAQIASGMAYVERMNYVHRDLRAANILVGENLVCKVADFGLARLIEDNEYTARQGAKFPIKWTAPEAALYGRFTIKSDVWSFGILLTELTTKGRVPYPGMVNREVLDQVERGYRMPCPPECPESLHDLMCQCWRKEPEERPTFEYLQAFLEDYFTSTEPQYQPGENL
Chain of IRAK4 (Q9NWZ3 whole entry): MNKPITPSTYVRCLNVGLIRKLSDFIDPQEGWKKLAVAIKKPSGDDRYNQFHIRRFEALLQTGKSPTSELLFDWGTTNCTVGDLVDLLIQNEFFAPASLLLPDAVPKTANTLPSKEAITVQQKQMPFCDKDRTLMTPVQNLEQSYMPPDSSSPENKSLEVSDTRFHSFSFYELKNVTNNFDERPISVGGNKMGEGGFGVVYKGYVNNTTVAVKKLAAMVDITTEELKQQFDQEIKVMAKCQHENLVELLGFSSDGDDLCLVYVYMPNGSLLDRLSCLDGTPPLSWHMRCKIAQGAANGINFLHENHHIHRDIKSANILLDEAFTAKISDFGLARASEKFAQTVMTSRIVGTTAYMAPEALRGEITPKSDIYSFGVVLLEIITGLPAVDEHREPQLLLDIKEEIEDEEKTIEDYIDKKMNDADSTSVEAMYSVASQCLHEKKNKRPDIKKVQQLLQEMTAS
Chain of TAK1 (O43318 1-303 limits assumed): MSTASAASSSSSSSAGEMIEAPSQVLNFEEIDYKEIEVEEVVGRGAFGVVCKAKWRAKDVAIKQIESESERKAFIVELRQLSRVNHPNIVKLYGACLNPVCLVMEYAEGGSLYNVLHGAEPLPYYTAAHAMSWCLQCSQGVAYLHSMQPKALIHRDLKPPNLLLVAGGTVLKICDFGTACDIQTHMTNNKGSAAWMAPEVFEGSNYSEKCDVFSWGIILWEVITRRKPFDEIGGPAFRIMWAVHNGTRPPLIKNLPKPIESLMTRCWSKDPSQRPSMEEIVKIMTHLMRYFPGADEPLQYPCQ
Chain of TYRO3 (Q06418 41-890): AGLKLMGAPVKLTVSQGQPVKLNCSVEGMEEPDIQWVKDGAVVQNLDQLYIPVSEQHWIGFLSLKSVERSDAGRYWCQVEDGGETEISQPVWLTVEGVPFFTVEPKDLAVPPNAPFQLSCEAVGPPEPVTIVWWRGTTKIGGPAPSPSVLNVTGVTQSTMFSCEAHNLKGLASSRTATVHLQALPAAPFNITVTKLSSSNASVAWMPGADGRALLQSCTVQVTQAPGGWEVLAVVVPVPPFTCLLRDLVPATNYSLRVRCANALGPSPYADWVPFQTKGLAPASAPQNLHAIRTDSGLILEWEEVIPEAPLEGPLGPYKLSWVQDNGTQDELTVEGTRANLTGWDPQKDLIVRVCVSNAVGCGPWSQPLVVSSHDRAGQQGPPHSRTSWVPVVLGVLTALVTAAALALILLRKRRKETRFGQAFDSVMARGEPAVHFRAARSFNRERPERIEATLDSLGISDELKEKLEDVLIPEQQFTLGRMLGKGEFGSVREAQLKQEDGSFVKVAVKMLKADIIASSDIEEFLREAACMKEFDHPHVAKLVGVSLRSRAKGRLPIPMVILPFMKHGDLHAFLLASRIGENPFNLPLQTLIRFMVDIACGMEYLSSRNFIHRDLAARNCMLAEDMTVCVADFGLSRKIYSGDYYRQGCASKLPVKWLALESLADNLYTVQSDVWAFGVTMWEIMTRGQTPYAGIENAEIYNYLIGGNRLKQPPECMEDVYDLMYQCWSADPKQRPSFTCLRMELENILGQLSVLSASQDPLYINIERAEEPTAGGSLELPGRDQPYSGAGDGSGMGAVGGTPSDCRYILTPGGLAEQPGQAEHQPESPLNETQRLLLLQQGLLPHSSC
Chain of PLK1 (P53350 whole entry, species assumed): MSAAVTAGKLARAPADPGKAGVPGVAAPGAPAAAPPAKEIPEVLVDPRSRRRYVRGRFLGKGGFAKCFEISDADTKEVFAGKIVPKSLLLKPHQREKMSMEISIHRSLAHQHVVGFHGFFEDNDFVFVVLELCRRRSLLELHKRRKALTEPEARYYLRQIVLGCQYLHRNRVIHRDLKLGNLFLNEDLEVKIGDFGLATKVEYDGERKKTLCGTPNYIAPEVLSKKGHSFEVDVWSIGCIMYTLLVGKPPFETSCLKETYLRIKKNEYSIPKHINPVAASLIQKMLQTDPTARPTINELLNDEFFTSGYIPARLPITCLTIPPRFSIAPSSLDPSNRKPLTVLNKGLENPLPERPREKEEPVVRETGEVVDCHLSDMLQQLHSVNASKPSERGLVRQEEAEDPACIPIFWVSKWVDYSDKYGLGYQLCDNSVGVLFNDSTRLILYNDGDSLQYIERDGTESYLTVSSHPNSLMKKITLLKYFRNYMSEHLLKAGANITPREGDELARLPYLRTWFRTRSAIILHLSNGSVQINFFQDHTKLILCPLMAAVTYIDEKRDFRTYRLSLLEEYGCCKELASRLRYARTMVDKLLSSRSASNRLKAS
Chain of MKK6 (P52564 whole entry): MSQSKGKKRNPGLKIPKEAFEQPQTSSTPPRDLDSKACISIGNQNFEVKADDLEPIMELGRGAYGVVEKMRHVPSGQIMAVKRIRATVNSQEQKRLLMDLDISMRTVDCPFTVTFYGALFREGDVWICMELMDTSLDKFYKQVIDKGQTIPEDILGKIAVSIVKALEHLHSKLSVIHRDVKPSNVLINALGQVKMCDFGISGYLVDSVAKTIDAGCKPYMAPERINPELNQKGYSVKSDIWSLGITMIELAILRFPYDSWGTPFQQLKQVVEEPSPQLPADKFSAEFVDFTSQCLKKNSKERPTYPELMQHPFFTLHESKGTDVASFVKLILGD
Chain of MEK1 (Q02750 whole entry): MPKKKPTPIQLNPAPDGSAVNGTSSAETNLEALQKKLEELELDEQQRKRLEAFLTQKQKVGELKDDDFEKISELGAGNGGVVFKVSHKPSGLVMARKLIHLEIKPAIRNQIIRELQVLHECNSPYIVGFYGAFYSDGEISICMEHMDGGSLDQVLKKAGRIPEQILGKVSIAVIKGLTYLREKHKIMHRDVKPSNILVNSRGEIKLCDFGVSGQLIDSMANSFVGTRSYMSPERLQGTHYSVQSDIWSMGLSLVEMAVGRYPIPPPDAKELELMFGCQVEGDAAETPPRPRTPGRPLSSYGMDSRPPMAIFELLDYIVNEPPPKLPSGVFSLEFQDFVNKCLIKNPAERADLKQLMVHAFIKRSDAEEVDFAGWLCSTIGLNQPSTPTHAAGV
Chain of FAK (Q05397 whole entry): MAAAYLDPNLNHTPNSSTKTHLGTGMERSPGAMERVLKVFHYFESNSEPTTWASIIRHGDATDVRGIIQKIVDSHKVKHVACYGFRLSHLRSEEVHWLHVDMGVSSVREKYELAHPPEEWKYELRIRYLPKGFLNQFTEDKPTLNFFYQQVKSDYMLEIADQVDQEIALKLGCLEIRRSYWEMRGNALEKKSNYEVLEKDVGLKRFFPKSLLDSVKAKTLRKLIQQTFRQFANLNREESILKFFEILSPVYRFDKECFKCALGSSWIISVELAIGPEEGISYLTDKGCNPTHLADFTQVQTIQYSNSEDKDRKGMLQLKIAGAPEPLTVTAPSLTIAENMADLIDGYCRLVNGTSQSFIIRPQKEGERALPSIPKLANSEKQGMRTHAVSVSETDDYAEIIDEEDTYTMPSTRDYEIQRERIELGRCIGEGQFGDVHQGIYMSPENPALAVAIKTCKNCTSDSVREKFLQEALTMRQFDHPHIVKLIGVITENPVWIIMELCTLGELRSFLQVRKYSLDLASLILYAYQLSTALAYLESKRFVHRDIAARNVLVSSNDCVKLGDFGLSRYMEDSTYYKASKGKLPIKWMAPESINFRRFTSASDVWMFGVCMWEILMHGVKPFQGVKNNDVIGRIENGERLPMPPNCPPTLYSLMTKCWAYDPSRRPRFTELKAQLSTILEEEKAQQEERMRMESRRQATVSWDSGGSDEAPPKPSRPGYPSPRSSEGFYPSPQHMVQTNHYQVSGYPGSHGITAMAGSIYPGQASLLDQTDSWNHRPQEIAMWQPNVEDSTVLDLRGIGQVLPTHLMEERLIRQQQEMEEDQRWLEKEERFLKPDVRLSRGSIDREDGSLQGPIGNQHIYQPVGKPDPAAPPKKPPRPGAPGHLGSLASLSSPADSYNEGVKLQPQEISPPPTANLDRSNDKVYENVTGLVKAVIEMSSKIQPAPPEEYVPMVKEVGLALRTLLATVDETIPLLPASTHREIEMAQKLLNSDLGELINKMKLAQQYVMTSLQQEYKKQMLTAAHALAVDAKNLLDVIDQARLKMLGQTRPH

## CN1C/C=C/CCOc2cccc(c2)-c2ccnc(n2)Nc2cccc(c2)C1 [TG02, (16E)-14-methyl-20-oxa-5,7,14,27-tetraazatetracyclo[19.3.1.12,6.18,12]heptacosa-1(25),2(27),3,5,8(26),9,11,16,21,23-decaene]
MKK6
  inhibition at 100 nm: less than 50%
FAK
  inhibition at 100 nm: less than 50%
IGF-1R
  inhibition at 100 nm: less than 50%
DIPG4
  IC50: 60 nM
DIPG13p
  IC50: 80 nM
DIPG007
  IC50: 93 nM
SF8628
  IC50: 70 nM
[1]
  ERK5 Thr218/Tyr220 phosphorylation (regulated by MEK5): did not inhibit
  ERK5 auto-phosphorylation and ERK5 activity sites (Ser731 and Thr733): confirmed to inhibit
PKBα
  inhibition at 100 nm: less than 50%
PKA
  inhibition at 100 nm: less than 50%
PLK1
  inhibition at 100 nm: less than 50%
ZAP-70
  inhibition at 100 nm: less than 50%
MAPKAP-K2
  inhibition at 100 nm: less than 50%
TYRO3
  IC50: 36 nM
Pim-3
  inhibition at 100 nm: less than 50%
[2]; 48 h, vs DMSO vehicle control
  apoptosis (Annexin-PI): induction of apoptosis; also recorded: increased populations in early apoptosis
  viable cells (Annexin negative, PI negative): decreased viable cells
[2]; vs vehicle
  cell growth: diminished cell growth
[3]
  cell number: significant decreases in cell number
GSK3α
  inhibition at 100 nm: less than 50%
Tumor cells (DIPG); vehicle control about 100%
  tumor cell viability, TG02 alone: 50%
Tumor cells (DIPG); radiation 3 fractions of 1.8 Gy
  tumor cell viability, TG02 and radiation: about 25%
IRAK4
  inhibition at 100 nm: less than 50%
[4]; adults with acute leukemia
  most common toxicities (≥20%): nausea, vomiting, fatigue, abdominal pain, diarrhea, constipation, and hypophosphatemia
[4]; adults with hematologic malignancies
  serious adverse events: nausea and vomiting (grades 2 and 3), fatigue (grade 3), altered mental status (grade 2), rash (grade 3), thrombocytopenia (grade 4), and neutropenic fever with sepsis (grade 3)
[4]; intermittent TG02 with fixed doses of carfilzomib, twice a week for 21 of 28 days
  maximum tolerated dose (MTD): 250 mg per dose
MEK1
  inhibition at 100 nm: less than 50%
[5]; 50 nM TG02 and 10 Gy of RT (2-Gy fractions over 5 days), Day 5, compared to RT or TG02 only
  cell viability, RT and TG02: statistically significant reduction in cell viability
[5]; 50 nM of TG02, Day 5, vs DMSO control
  cell viability, TG02 alone: significantly reduced cell viability
TAK1
  inhibition at 100 nm: less than 50%
Src
  inhibition at 100 nm: less than 50%
Nek2
  inhibition at 100 nm: less than 50%
